The source of these data is US10723716B2, “Alpha-helix mimetics as modulators of Abeta self-assembly” (New York University, priority 2016, dated 2020).

Molecules are shown by their SMILES. Entries after “also recorded” stand apart in the source; their conditions may differ. Where two headings read alike, the source gives them in different places.

The term viability denotes a per cent measure of how many cells are alive, often set against a control.

The target of data set [1] is T1, Aβ42 (Homo sapiens, UniProt P05067).
T1 construct: Cleavage of APP results in several Aβ isoforms; The predominant species are Aβ42 and Aβ40; purchased Anaspec (Fremont, Calif., USA)
T1 sequence (P05067 672-713 limits assumed): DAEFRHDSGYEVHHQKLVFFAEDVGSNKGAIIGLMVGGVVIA
Put plainly: ThT-based kinetic assay of Aβ42 aggregation. It is filed as biochemical. To be noted: for effect on Aβ42 oligomerization/fibrillation (ThT): equimolar ratio. The source says: The aggregation of Aβ42 was monitored using an established exogenous dye, Thioflavin T (ThT) that intercalates between the amyloid fibers along the perpendicular axis without affecting the kinetics of amyloid formation. (see Wolfe, L. S.; Calabrese, M. F.; Nath, A.; Blaho, D. V.; Miranker, A. D.; Xiong, Y. Proc. Natl. Acad. Sci. U.S.A. 2010, 107, 16863-16868; Levine, H. Protein Sci. 1993, 2, 404-410). A representative ThT-based kinetic assay results are depicted in FIG. 2. The oligomerization reaction of Aβ42 was initiated by diluting a 1 mM stock solution of Aβ42 (in DMSO) to a concentration of 20 μM in phosphate buffer (150 mM KCl, 50 mM NaPi, pH 7.4). Aβ42 fibrillation is a nucleation-dependent polymerization process and is characterized by a sigmoidal curve consisting of a lag phase, an elongation phase, and a plateau phase (FIG. 2a). The kinetic reaction was quantified by extracting t50, which is the time required to reach 50% of the maximum fluorescence that results from fibrillation. Under standard conditions the tso for Aβ42 fibrillation was 2.1±0.2 h (FIG. 2a and FIG. 8).
(§1) Kinetic assays were conducted on a FlexStation 3 Multi-Mode Microplate reader from Molecular Devices (Sunnyvale, Calif., USA). Experiments were conducted in triplicate in a 96-well plate with a final volume of 200 μL per well. Every measurement was an average of 50 readings. The aggregation of an amyloidogenic peptide (Aβ40, Aβ42, or IAPP) was initiated by the addition of the peptide from a stock solution (in DMSO, 0.5-1 mM) to phosphate buffer. The final concentration of each peptide was different based on their aggregation. The stoichiometry of ThT dye for each peptide was 0.5:1 (ThT:peptide). Peptide aggregation was monitored by ThT fluorescence (λex=445 nm and λem=485 nm). The blank sample contained all the components of the peptide samples except the peptide. The sample data were processed by subtracting the fluorescence of the blank sample. The fluorescence intensity data was then normalized by setting the maximum value to 1.
(§2) Kinetic assays in the presence of the compounds of the invention were conducted under the same conditions. The small molecules were added from a stock solution (1 mM or 10 mM in DMSO) to keep the final concentration of DMSO less than 1.0% (v/v). Small molecules were added to the wells with ThT and buffer and mixed gently with a pipette before adding the peptide. To keep the conditions identical, an equal amount of DMSO was added to the wells with the peptide-only control reactions.
(§3) Kinetic profiles were processed using Origin (version 9.1). Kinetic curves were fit using the built-in sigmoidal fit. Each run was fit independently to extract the t50 (time required to reach 50% of the maximum fluorescence intensity). Error bars represent standard deviations from the mean of at least three independent experiments.
In the delayed addition experiments, where the oligopyridylamides were added at various time points during Aβ amyloid reaction, the conditions were same (as used for the assays where Aβ was preincubated with the oligopyridylamides). The Aβ oligomerization process was initiated by dissolving Aβ into buffer solution and then oligopyridylamides were added to this solution at indicated time points (depend on the assay) at an equimolar ratio.

Data set [2] concerns the target T1, Aβ42. The experiment in a line: ThT-based kinetic assay of Aβ42 aggregation. To be noted: 5 μM Aβ42, equimolar, compound added at 2 h. It counts as biochemical.
For the next data set, the target named is T2, IAPP (Homo sapiens, UniProt P10997).
T2 construct: purchased Anaspec (Fremont, Calif., USA)
T2 sequence (P10997 34-70 limits assumed): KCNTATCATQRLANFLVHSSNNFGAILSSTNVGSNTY
Put plainly: ThT-based kinetic assay of IAPP aggregation. It counts as biochemical. The note with it: for effect on IAPP fibrillation / amyloid formation (ThT): equimolar ratio (IAPP 10 μM, FIG. 25c, 26c, 27m). The procedure:
as §1, §2, §3

Data set [3] concerns Aβ42 mediated toxicity in mouse neuroblastoma (N2a) cells. Put plainly: Aβ42 mediated toxicity in Neuro-2a cells (MTS cell viability). It is filed as cell-based. The note with it: for IC50: 5 μM Aβ42, N2a cells, read-out: IC50 (concentration required to inhibit 50% cell toxicity induced by 5 μM Aβ42); for cell viability, delayed addition: in % (unit assumed).
A further data set relates to Neuro-2a cells. The experiment in a line: Effect of compound alone on Neuro-2a cell viability. It counts as cell-based, mouse. To be noted: for toxicity of compound alone to Neuro-2a cells: matched cytotoxic experimental conditions, no Aβ42. On the procedure:
To investigate the toxic effect of the peptide alone on cell viability, solution (B) without the oligopyridylamide compound was mixed with solution (A), while the effect of the oligopyridylamide compound alone was determined by adding solution (A) without peptide to solution (B). The effect of oligopyridylamides on seed-catalyzed Aβ42 aggregation was probed by preparing an additional solution (C) containing 0.5 μM seeds. The volume contributed by solution (C) was taken into account in preparing solution (B). Solution (C) was mixed with solution (B), and the resulting mixture was then added to solution (A) shortly before addition to the wells. To study the effect of oligopyridylamides on the oligomeric states of Aβ42, solution (A) was mixed with solution (B) without inhibitor and incubated at room temperature for 1, 2 or 3 h. Subsequently, 50 μM oligopyridylamides was added to the mixture, which was then immediately added to the cells. […] The MTS reagent was incubated for 2.5 h at 37° C., and absorbance of the soluble formazan product (λ=490 nm) of MTS reduction was measured on a Synergy H1MF Multi-Mode microplate-reader (BioTek, Winooski, Vt., USA), with a reference wavelength of 650 nm to subtract the background. Wells treated with a solution containing serum-free DMEM, 200 μM NaOH, 0.1×PBS and 0.5% (v/v) DMSO served as control. MTS reduction was determined from the ratio of the absorbance of the treated wells to the control wells. Each data point represents an average of four independent quadruplet-well trials.

Where [4] appears, read: mouse/rat NG108-15, N2a, 5 μM Aβ42 + seeds (10% v/v), 5 μM compound, without compound 31%, read-out: cell viability, seed-induced Aβ42 cytotoxicity.

For `COC(=O)c1ccc(NC(=O)c2ccc(NC(=O)c3ccc(NC(=O)c4ccc([N+](=O)[O-])c(OCC(C)C)n4)c(OCc4ccccc4)n3)c(OCC(=O)O)n2)c(OCC(=O)O)n1` [ADH-31], the “effect on Aβ42 oligomerization/fibrillation (ThT)” value on Aβ42 [1] is on record as “wholly suppressed”. Moreover, the “effect on Aβ42 amyloid reaction on delayed addition” value at Aβ42 [2] is given as “effective in inhibiting”. At IAPP, the “effect on IAPP fibrillation / amyloid formation (ThT)” value was “completely suppressed”. For the same compound, in data set [3] (mouse/rat NG108-15, N2a), the IC50 was determined as 2500 ± 100 nM. Moreover, the viability at 5 µM in data set [3] (setting [4]) stood at 69%. The “toxicity of compound alone to Neuro-2a cells” value with Neuro-2a cells is on record as “not toxic”.
Consider `COC(=O)c1ccc(NC(=O)c2ccc(NC(=O)c3ccc([N+](=O)[O-])c(OCc4ccccc4)n3)c(OCCCN)n2)c(OCCCN)n1` [ADH-41], for which the “change in ThT fluorescence intensity in control reaction” value on Aβ42 [1] (control reaction without Aβ42, matched conditions) is recorded as “no change”. The “effect on Aβ42 oligomerization/fibrillation (ThT)” value at Aβ42 [1] is recorded as “completely inhibited; also recorded: effectively blocks; also recorded: decreased significantly”. The “ThT fluorescence intensity characteristic of Aβ42 oligomers” value on Aβ42 [1] (sub-stoichiometric ratios of 1:0.5 and 1:0.1 (Aβ42:ADH-41)) was < 10%. The “effect on Aβ42 amyloid reaction on delayed addition” value at Aβ42 [2] is on record as “effective in inhibiting”. For the same compound, the “effect on aggregation of IAPP (ThT)” value at IAPP (20 μM IAPP, equimolar ratio (FIG. 3b, 3c, 13)) is on record as “agonist”. Moreover, the “effect on IAPP fibrillation / amyloid formation (ThT)” value at IAPP was “did not have any effect; also recorded: no effect”. Further, the IC50 in data set [3] was determined as 1400 ± 100 nM; in data set [3] (mouse/rat NG108-15, N2a) it was 1450 nM. Besides, the results for the “cell viability, delayed addition” value in data set [3] (ADH-41 added after 24 h of exposure to 5 μM Aβ42) and in data set [3] (ADH-41 added after 48 h of exposure to 5 μM Aβ42) were 79±2 and 102±2, respectively. For the same compound, the viability at 5 µM in data set [3] (mouse/rat NG108-15, N2a, 24 h, read-out: cell viability) amounted to 99%; in data set [3] (setting [4]), 63%; in data set [3] (mouse/rat NG108-15, N2a, read-out: cell viability, delayed addition) it was 93 ± 2%. Also, the “cell viability, compound alone” value in the data set on Neuro-2a cells (4 μM ADH-41 + 1 μM ADH-41F, N2a cells, 24 h) was found to be 98%. Further, in the data set on Neuro-2a cells, the “toxicity of compound alone to Neuro-2a cells” value is recorded as “not toxic”.
